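Values below derive from 48-hour exposures of cells grown in 96-well plates, with endpoints linearly interpolated between the two concentrations bracketing the appropriate inhibition level. The concentration for 50% growth inhibition is given as GI50.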 Calls of active or inactive are those of the source. Cut-off read from the data, not from the text of the source: active = GI50 up to about 1.1 µM and inactive = higher.
What was measured:
Assay in all cases: DTP human tumour cell line panel, 48 h
786-0 = system: 786-0
A498 = system: A498
A549 = system: A549
ACHN = system: ACHN
BT-549 = system: BT-549
CAKI-1 = system: CAKI-1
CCRF-CEM = system: CCRF-CEM
COLO 205 = system: COLO 205
DU-145 = system: DU-145
EKVX = system: EKVX
HCC 2998 = system: HCC 2998
HCT-116 = system: HCT-116
HCT-15 = system: HCT-15
HL-60 = system: HL-60
HOP-62 = system: HOP-62
HOP-92 = system: HOP-92
HT-29 = system: HT-29
Hs-578T = system: Hs-578T
IGROV-1 = system: IGROV-1
K562 = system: K562
KM12 = system: KM12
LOX IMVI = system: LOX IMVI
M14 = system: M14
MCF7 = system: MCF7
MDA-MB-231 = system: MDA-MB-231
MDA-MB-435 = system: MDA-MB-435
MDA-N = system: MDA-N
MOLT-4 = system: MOLT-4
Malme-3M = system: Malme-3M
NCI-H226 = system: NCI-H226
NCI-H23 = system: NCI-H23
NCI-H460 = system: NCI-H460
NCI-H522 = system: NCI-H522
NCI/ADR-RES = system: NCI/ADR-RES
OVCAR-3 = system: OVCAR-3
OVCAR-4 = system: OVCAR-4
OVCAR-5 = system: OVCAR-5
OVCAR-8 = system: OVCAR-8
PC-3 = system: PC-3
RPMI-8226 = system: RPMI-8226
RXF 393 = system: RXF 393
SF-268 = system: SF-268
SF-295 = system: SF-295
SF-539 = system: SF-539
SK-MEL-28 = system: SK-MEL-28
SK-MEL-2 = system: SK-MEL-2
SK-MEL-5 = system: SK-MEL-5
SK-OV-3 = system: SK-OV-3
SN12C = system: SN12C
SNB-19 = system: SNB-19
SR = system: SR
SW-620 = system: SW-620
T47D = system: T47D
TK-10 = system: TK-10
U-251 = system: U-251
UACC-257 = system: UACC-257
UACC-62 = system: UACC-62
UO-31 = system: UO-31
SNB-75 = system: SNB-75

## N#Cc1c(N)nc2[nH]nc(N)c2c1-c1ccccc1
786-0
  GI50: 16.8 µM (inactive)
A498
  GI50: 1.61 µM (inactive)
A549
  GI50: 6.58 µM (inactive)
ACHN
  GI50: 4.63 µM (inactive)
BT-549
  GI50: 7.43 µM (inactive)
CAKI-1
  GI50: 3.2 µM (inactive)
CCRF-CEM
  GI50: 16.4 µM (inactive)
COLO 205
  GI50: 5.65 µM (inactive)
DU-145
  GI50: 8.11 µM (inactive)
EKVX
  GI50: 7.74 µM (inactive)
HCC 2998
  GI50: 16.5 µM (inactive)
HCT-116
  GI50: 7.29 µM (inactive)
HCT-15
  GI50: 5.41 µM
HL-60
  GI50: 11.2 µM (inactive)
HOP-62
  GI50: 27.5 µM (inactive)
HOP-92
  GI50: 2.56 µM (inactive)
HT-29
  GI50: 12.2 µM (inactive)
Hs-578T
  GI50: 5.3 µM (inactive)
IGROV-1
  GI50: 2.8 µM (inactive)
K562
  GI50: > 41.8 µM (inactive)
KM12
  GI50: 6.4 µM (inactive)
LOX IMVI
  GI50: 3.89 µM (inactive)
M14
  GI50: 7.03 µM (inactive)
MCF7
  GI50: 4.59 µM (inactive)
MDA-MB-231
  GI50: 4.48 µM (inactive)
MDA-MB-435
  GI50: 6.93 µM (inactive)
MDA-N
  GI50: 6.04 µM (inactive)
MOLT-4
  GI50: 4.04 µM (inactive)
Malme-3M
  GI50: 4.73 µM (inactive)
NCI-H226
  GI50: 11.8 µM (inactive)
NCI-H23
  GI50: 6.49 µM (inactive)
NCI-H460
  GI50: 4.28 µM (inactive)
NCI-H522
  GI50: 3.72 µM (inactive)
NCI/ADR-RES
  GI50: 15 µM (inactive)
OVCAR-3
  GI50: 3.72 µM (inactive)
OVCAR-4
  GI50: 11.3 µM (inactive)
OVCAR-5
  GI50: 14.9 µM (inactive)
OVCAR-8
  GI50: 12.5 µM (inactive)
PC-3
  GI50: 5.13 µM (inactive)
RPMI-8226
  GI50: > 24.3 µM (inactive)
RXF 393
  GI50: 3.78 µM (inactive)
SF-268
  GI50: 10.2 µM (inactive)
SF-295
  GI50: 6.04 µM (inactive)
SF-539
  GI50: 7.16 µM (inactive)
SK-MEL-28
  GI50: 14.2 µM (inactive)
SK-MEL-2
  GI50: 3.4 µM (inactive)
SK-MEL-5
  GI50: 8.24 µM (inactive)
SK-OV-3
  GI50: 4.02 µM (inactive)
SN12C
  GI50: 5.33 µM (inactive)
SNB-19
  GI50: 16.1 µM (inactive)
SR
  GI50: > 20.4 µM (inactive)
SW-620
  GI50: 26.9 µM (inactive)
T47D
  GI50: 0.452 µM (active)
TK-10
  GI50: 5.6 µM (inactive)
U-251
  GI50: 21.2 µM (inactive)
UACC-257
  GI50: 21.1 µM (inactive)
UACC-62
  GI50: 2.72 µM (inactive)
UO-31
  GI50: 3.56 µM (inactive)

## Cc1ccc([N+](=O)[O-])cc1/N=N/C(=O)NNc1cc([N+](=O)[O-])ccc1C
A498
  GI50: 21.4 µM (inactive)
BT-549
  GI50: 22.5 µM (inactive)
CAKI-1
  GI50: 25.9 µM (inactive)
CCRF-CEM
  GI50: 10 µM (inactive)
COLO 205
  GI50: 33.1 µM (inactive)
DU-145
  GI50: 35.3 µM (inactive)
HCC 2998
  GI50: 23.3 µM (inactive)
HCT-116
  GI50: 17.7 µM (inactive)
HCT-15
  GI50: 21.7 µM
HL-60
  GI50: 48.2 µM (inactive)
HOP-62
  GI50: 26.4 µM (inactive)
HOP-92
  GI50: 70.8 µM (inactive)
HT-29
  GI50: 21.9 µM (inactive)
Hs-578T
  GI50: 26.4 µM (inactive)
IGROV-1
  GI50: > 10 µM (inactive)
K562
  GI50: 19.7 µM (inactive)
KM12
  GI50: 23.4 µM (inactive)
M14
  GI50: 18.9 µM (inactive)
MCF7
  GI50: 26.4 µM (inactive)
MDA-MB-231
  GI50: 15.5 µM (inactive)
MDA-MB-435
  GI50: 22.2 µM (inactive)
MDA-N
  GI50: 26.6 µM (inactive)
MOLT-4
  GI50: 9.29 µM (inactive)
Malme-3M
  GI50: 37.6 µM (inactive)
NCI-H226
  GI50: > 10 µM (inactive)
NCI-H23
  GI50: 48.9 µM (inactive)
NCI-H460
  GI50: > 10 µM (inactive)
NCI-H522
  GI50: 15.8 µM (inactive)
NCI/ADR-RES
  GI50: 27.9 µM (inactive)
OVCAR-3
  GI50: 18.1 µM (inactive)
OVCAR-5
  GI50: 51.3 µM (inactive)
OVCAR-8
  GI50: 27 µM (inactive)
PC-3
  GI50: 17.6 µM (inactive)
RPMI-8226
  GI50: 30.4 µM (inactive)
RXF 393
  GI50: 18.1 µM (inactive)
SF-295
  GI50: 17.9 µM (inactive)
SK-MEL-28
  GI50: 26.8 µM (inactive)
SK-MEL-2
  GI50: 24 µM (inactive)
SK-MEL-5
  GI50: 17.8 µM (inactive)
SK-OV-3
  GI50: 11.1 µM (inactive)
SN12C
  GI50: > 10 µM (inactive)
SNB-19
  GI50: 41.9 µM (inactive)
SNB-75
  GI50: 21.3 µM (inactive)
SR
  GI50: 52.8 µM (inactive)
T47D
  GI50: 31.3 µM (inactive)
U-251
  GI50: 32.9 µM (inactive)
UACC-62
  GI50: 14.7 µM (inactive)
UO-31
  GI50: 23.6 µM (inactive)

## COc1ccc(/C=C2\CN(C)CC3=C2OC(N)=C(C#N)C3c2ccc(OC)cc2)cc1 (stereo not drawn)
786-0
  GI50: 30.5 µM (inactive)
A498
  GI50: 35.4 µM (inactive)
A549
  GI50: 23 µM (inactive)
ACHN
  GI50: 29.6 µM (inactive)
BT-549
  GI50: > 100 µM (inactive)
CAKI-1
  GI50: 69.7 µM (inactive)
CCRF-CEM
  GI50: 7.57 µM (inactive)
COLO 205
  GI50: > 52.1 µM (inactive)
DU-145
  GI50: > 76.6 µM (inactive)
EKVX
  GI50: 43.4 µM (inactive)
HCC 2998
  GI50: 23.8 µM (inactive)
HCT-116
  GI50: 24.3 µM (inactive)
HCT-15
  GI50: 55.6 µM
HOP-62
  GI50: > 77.4 µM (inactive)
HOP-92
  GI50: 4.66 µM (inactive)
HT-29
  GI50: > 56.8 µM (inactive)
Hs-578T
  GI50: 88.1 µM (inactive)
IGROV-1
  GI50: 15.9 µM (inactive)
K562
  GI50: 33.6 µM (inactive)
KM12
  GI50: > 56.5 µM (inactive)
LOX IMVI
  GI50: 42.7 µM (inactive)
M14
  GI50: 97.1 µM (inactive)
MCF7
  GI50: 19.5 µM (inactive)
MDA-MB-231
  GI50: 42.4 µM (inactive)
MDA-MB-435
  GI50: 17.7 µM (inactive)
MDA-N
  GI50: 21.8 µM (inactive)
MOLT-4
  GI50: 5.81 µM (inactive)
Malme-3M
  GI50: 14.3 µM (inactive)
NCI-H226
  GI50: > 100 µM (inactive)
NCI-H23
  GI50: > 68.2 µM (inactive)
NCI-H460
  GI50: 24.9 µM (inactive)
NCI-H522
  GI50: 14.5 µM (inactive)
NCI/ADR-RES
  GI50: 51.9 µM (inactive)
OVCAR-3
  GI50: 21.6 µM (inactive)
OVCAR-4
  GI50: 21.6 µM (inactive)
OVCAR-5
  GI50: > 100 µM (inactive)
OVCAR-8
  GI50: 19.9 µM (inactive)
PC-3
  GI50: > 25.8 µM (inactive)
RPMI-8226
  GI50: 9.82 µM (inactive)
RXF 393
  GI50: 20.7 µM (inactive)
SF-268
  GI50: 48.6 µM (inactive)
SF-295
  GI50: 57.5 µM (inactive)
SF-539
  GI50: > 100 µM (inactive)
SK-MEL-28
  GI50: > 100 µM (inactive)
SK-MEL-2
  GI50: > 45.9 µM (inactive)
SK-MEL-5
  GI50: > 62.1 µM (inactive)
SK-OV-3
  GI50: 5.64 µM (inactive)
SN12C
  GI50: 35.4 µM (inactive)
SNB-19
  GI50: > 86.7 µM (inactive)
SR
  GI50: 15.2 µM (inactive)
SW-620
  GI50: > 94.2 µM (inactive)
T47D
  GI50: 13.6 µM (inactive)
TK-10
  GI50: > 84.5 µM (inactive)
U-251
  GI50: 38 µM (inactive)
UACC-257
  GI50: 50.5 µM (inactive)
UACC-62
  GI50: > 100 µM (inactive)
UO-31
  GI50: > 50.5 µM (inactive)

From ChEMBL document CHEMBL1201862, “PubChem BioAssay data set” (2004)
